Patent publication US20230074252A1, “DOSAGES AND METHODS FOR TREATING PULMONARY ARTERIAL HYPERTENSION WITH RODATRISTAT” (Altavant Sciences GmbH, priority 2020, published 2023)
Read-outs that look alike come from different tables or passages of the source.

Experiments:
Assay in all cases: Transporter inhibition, transporter-expressing in vitro system
Type in all cases: in vitro ADME
OAT1 = target: T1, OAT1 (Homo sapiens, UniProt Q4U2R8); conditions: for Potential for interaction? (transporter inhibitor), OAT1: predicted @ 600 mg BID
T1 sequence (Q4U2R8 1-563): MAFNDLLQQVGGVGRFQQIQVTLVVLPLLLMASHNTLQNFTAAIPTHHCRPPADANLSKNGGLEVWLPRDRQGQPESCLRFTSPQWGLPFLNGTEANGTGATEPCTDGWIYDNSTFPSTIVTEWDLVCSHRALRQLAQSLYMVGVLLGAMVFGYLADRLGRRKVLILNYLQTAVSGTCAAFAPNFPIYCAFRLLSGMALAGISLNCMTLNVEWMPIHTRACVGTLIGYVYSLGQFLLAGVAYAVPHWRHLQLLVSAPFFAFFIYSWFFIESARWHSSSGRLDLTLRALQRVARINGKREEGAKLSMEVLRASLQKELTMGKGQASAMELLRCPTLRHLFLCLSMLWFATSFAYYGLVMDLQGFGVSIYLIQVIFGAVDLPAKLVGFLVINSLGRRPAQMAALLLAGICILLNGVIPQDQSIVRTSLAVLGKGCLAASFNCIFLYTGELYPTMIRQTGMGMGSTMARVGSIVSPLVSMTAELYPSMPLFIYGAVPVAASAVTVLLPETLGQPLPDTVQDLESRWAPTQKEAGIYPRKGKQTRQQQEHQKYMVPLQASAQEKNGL
Description: (§1) The competitive inhibition of specific transporters was investigated for RVT-1201 and KAR5417 in transporter-expressing in vitro systems (XT158039). Inhibition of P-gp was evaluated using a Caco-2 cell line with digoxin as probe substrate. Inhibition of OATP1B1 and OATP1B3 was evaluated using a HEK293 cell line expressing these transporters with estradiol-17β-glucuronide as probe substrate. In addition, inhibition of other transporters was also investigated (BCRP, OAT1, OAT3, OCT2, MATE1, MATE2-K). The IC50 estimates for P-gp (RVT-1201) and OATP1B1/3 (RVT-1201 and KAR5417) supported further evaluation of inhibition DDI potential using the PBPK model. For each IC50 estimate, substrate concentration and Km were used to estimate RVT-1201 and KAR5417 Ki with Equation 1 (Cheng and Prusoff, 1973).

MATE2-K = MATE2-K (Homo sapiens, UniProt Q86VL8); conditions: for Potential for interaction? (transporter inhibitor), MATE2-K: predicted @ 600 mg BID
MATE2-K, sequence (Q86VL8 1-566 isoform Q86VL8-3): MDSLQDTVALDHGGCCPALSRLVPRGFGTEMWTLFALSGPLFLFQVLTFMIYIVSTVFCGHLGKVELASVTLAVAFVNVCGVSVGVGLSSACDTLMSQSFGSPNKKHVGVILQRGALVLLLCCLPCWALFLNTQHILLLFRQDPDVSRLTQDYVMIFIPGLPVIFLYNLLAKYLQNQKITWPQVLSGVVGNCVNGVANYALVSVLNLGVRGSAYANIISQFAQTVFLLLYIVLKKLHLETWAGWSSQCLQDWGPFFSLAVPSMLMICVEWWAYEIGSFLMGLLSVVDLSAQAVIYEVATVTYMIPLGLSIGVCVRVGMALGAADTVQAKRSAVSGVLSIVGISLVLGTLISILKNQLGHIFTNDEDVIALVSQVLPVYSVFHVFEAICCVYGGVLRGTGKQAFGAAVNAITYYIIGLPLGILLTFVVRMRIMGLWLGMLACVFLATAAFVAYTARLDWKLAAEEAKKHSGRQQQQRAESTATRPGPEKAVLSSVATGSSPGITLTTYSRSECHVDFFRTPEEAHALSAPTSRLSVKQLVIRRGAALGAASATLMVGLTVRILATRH
Description: as §1

OCT2 = target: T2, OCT2 (Homo sapiens, UniProt O15244); conditions: for IC50: concentrations of up to 20 μM; for Potential for interaction? (transporter inhibitor), OCT2: predicted @ 600 mg BID
T2 sequence (O15244 1-555): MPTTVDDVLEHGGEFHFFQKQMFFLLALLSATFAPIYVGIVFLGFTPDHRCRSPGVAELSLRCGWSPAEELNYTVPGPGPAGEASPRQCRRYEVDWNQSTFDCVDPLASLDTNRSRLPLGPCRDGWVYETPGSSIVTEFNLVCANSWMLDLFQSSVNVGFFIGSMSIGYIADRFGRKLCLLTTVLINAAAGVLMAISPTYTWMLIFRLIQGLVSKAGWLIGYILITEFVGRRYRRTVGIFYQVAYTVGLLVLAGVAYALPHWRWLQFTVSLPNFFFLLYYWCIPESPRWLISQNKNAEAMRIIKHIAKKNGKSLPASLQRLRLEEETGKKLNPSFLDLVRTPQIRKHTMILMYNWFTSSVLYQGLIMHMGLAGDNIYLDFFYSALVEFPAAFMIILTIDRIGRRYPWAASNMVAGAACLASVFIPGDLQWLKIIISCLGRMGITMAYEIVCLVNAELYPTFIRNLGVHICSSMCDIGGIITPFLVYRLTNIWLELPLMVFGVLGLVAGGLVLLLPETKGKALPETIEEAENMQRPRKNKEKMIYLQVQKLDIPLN
Description: as §1

BCRP = target: T3, BCRP (Homo sapiens, UniProt Q9UNQ0); conditions: for Potential for interaction? (transporter inhibitor), BCRP: predicted @ 600 mg BID
T3 sequence (Q9UNQ0 1-655): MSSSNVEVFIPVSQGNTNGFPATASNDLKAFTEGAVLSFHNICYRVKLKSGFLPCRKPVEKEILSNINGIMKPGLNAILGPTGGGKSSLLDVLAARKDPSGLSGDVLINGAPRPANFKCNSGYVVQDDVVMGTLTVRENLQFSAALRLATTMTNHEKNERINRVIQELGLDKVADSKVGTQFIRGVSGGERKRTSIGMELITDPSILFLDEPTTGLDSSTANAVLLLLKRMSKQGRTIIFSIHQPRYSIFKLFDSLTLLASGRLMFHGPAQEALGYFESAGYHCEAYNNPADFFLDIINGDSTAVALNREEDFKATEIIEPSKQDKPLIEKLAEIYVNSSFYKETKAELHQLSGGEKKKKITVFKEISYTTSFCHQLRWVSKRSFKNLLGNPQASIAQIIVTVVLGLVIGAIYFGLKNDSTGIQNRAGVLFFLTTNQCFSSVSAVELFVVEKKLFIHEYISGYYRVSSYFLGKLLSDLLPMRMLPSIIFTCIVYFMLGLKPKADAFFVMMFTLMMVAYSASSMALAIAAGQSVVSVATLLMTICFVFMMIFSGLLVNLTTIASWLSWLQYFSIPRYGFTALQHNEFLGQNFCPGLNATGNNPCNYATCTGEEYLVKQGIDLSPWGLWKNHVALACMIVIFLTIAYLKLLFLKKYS
Description: as §1

MATE1 = target: T4, MATE1 (Homo sapiens, UniProt Q96FL8); conditions: for Potential for interaction? (transporter inhibitor), MATE1: predicted @ 600 mg BID
T4 sequence (Q96FL8 1-570): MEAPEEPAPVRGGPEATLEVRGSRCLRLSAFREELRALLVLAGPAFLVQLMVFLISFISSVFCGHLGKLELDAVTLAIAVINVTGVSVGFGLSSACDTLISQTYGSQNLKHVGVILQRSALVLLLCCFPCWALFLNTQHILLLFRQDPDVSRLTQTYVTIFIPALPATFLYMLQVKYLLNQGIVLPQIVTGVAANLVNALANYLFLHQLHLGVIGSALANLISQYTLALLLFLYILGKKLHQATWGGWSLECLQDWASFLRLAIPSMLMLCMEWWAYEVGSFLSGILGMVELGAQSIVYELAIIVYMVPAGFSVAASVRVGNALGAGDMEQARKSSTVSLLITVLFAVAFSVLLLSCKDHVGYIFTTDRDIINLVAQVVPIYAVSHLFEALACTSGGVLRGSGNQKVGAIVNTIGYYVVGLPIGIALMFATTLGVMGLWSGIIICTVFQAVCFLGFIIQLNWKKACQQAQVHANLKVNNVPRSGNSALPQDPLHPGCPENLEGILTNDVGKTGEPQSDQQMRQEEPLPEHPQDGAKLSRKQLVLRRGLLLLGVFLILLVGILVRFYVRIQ
Description: as §1

| Compound | Inhibition of OAT1 (in words) (OAT1) | Potential for interaction? (transporter inhibitor), OAT1 (OAT1) | Potential for interaction? (transporter inhibitor), MATE2-K (MATE2-K) | IC50 (OCT2) [µM] | Potential for interaction? (transporter inhibitor), OCT2 (OCT2) | Inhibition of BCRP (in words) (BCRP) | Inhibition of BCRP (in words) (BCRP; listed as rodatristat ethyl) | Potential for interaction? (transporter inhibitor), BCRP (BCRP) | Potential for interaction? (transporter inhibitor), MATE1 (MATE1) | Inhibition of MATE2-K (in words) (MATE2-K; up to 30 μM nominal concentration) | Inhibition of BCRP (in words) (BCRP; listed as rodatristat) | inhibition at 30 µM (MATE1; transporter-expressing in vitro system (MATE1), nominal 30 μM) [%] |
| --- | --- | --- | --- | --- | --- | --- | --- | --- | --- | --- | --- | --- |
| CCOC(=O)[C@@H]1CC2(CCN(c3cc(O[C@H](c4ccc(Cl)cc4-c4ccccc4)C(F)(F)F)nc(N)n3)CC2)CN1 [Rodatristat ethyl, (S)-ethyl 8-(2-amino-6-((R)-1-(5-chloro-[1,1′-biphenyl]-2-yl)-2,2,2-trifluoroethoxy)pyrimidin-4-yl)-2,8-diazaspiro[4.5]decane-3-carboxylate] | Neither rodatristat ethyl nor rodatristat inhibited | No | No | > 20 | No | not an inhibitor | Neither rodatristat ethyl nor rodatristat inhibited | No | No | – | – | – |
| Nc1nc(O[C@H](c2ccc(Cl)cc2-c2ccccc2)C(F)(F)F)cc(N2CCC3(CC2)CN[C@H](C(=O)O)C3)n1 [Rodatristat, (S)-8-(2-amino-6-((R)-1-(5-chloro-[1,1′-biphenyl]-2-yl)-2,2,2-trifluoroeth-oxy)pyrimidin-4-yl)-2,8-diazaspiro[4.5]decane-3-carboxylic acid] | Neither rodatristat ethyl nor rodatristat inhibited | No | No | > 20 | No | not an inhibitor | – | No | No^a | did not inhibit | Neither rodatristat ethyl nor rodatristat inhibited | 30 |
